Holding throughout (experiment): NCI-60 cell line screen, 48 h
For assay [1], the system named is ACHN renal.
Assay [2] relates to HCC-2998 colon.
Assay [3] has as its system IGROV1 ovarian.
In assay [4] the test system is K-562 leukemia.
For assay [5], the system named is OVCAR-4 ovarian.
For assay [6], the system named is SN12C renal.
In assay [7] the test system is SR leukemia.
The subject of assay [8] is SW-620 colon.
Assay [9] deals with HT29 colon.

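Assay format: 96-well plates, 48-hour exposure. The concentration for 50% growth inhibition is given as GI50. Definition used: TGI = concentration required for complete inhibition of growth.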 A value given as a limit tells only on which side of the number the result lay.

On to `CC1(C)CCOC(Sc2ccccc2)C1` (stereo not drawn), for which the TGI in assay [1], in assay [2], in assay [3], in assay [4], in [5] and in [6] was more than 100 µM throughout. The TGI in assay [7] and in assay [8] was more than 100 µM in each case.

Turning to `CC1Nc2ccccc2NC1C=C(C#N)C#N` (stereo not drawn), the TGI was determined as 32.7 µM in assay [1]; 32.8 µM in assay [2]; 36.9 µM in assay [9]; 37.8 µM in [3]; 48.5 µM in assay [4]; 31.6 µM in assay [5]. For the same compound, the TGI in assay [6] turned out to be 30.1 µM; in assay [7], 22.4 µM; in [8] it was 25.1 µM.

As for `CN1C=C(C(N)=O)Cc2ccsc21`, the TGI in [1], in assay [2], in assay [9], in [3], in assay [4] and in assay [5] was more than 100 µM each time. Further, the TGI in assay [6], in assay [7] and in [8] was more than 100 µM in each case.

Regarding `CC[C@@]1(O)C(=O)OCc2c1cc1n(c2=O)Cc2cc3c(N)c(OC)ccc3nc2-1`, the GI50 in assay [1] is 0.0255 µM; in assay [2] it was 0.155 µM; in [9] it was 0.205 µM; in [3], 0.223 µM; in [4] it was 0.152 µM; in [5] it was 0.229 µM. For the same compound, the GI50 is 0.0124 µM in assay [6], less than 0.01 µM in [7] and 0.137 µM in assay [8]. Besides, the TGI in assay [1] was 0.0767 µM; in assay [2], 0.373 µM; in assay [9], more than 100 µM; in assay [3], 2.45 µM; in [5] it was 1.36 µM; in assay [6] it was 0.126 µM. In addition, the TGI in assay [8] was determined as 2.87 µM.

`NNC(=O)C(=O)N/N=C1\CCCC1C(=O)CCC(=O)Nc1cccc(Cl)c1` (stereo not drawn): the TGI in assay [1], in [2], in assay [9], in assay [3], in assay [5] and in assay [6] was more than 100 µM in each case. The same compound showed a TGI in [8] of more than 100 µM.

Turning to `O=C1C[C@@H]2[C@@H](C=CC23CCCC3)N1O`, the TGI in assay [1], in [2], in assay [9], in assay [3], in assay [4] and in assay [5] was more than 100 µM each time. Also, the TGI in assay [6] and in [8] was more than 100 µM each time.

As for `Nc1ncnc2c1ncn2C1(CO)OC(CO)C(O)C1O` (stereo not drawn), the TGI in assay [1], in assay [2], in [9], in assay [5], in assay [6] and in assay [7] was more than 100 µM each time. The compound also gave a TGI in assay [8] of more than 100 µM.

On to `O=C1CC2=CCCC2O1` (stereo not drawn), for which the TGI in [2], in assay [9], in [3], in [4], in [5] and in assay [6] was more than 100 µM in each case. Also, in assay [8], the TGI was more than 100 µM.

In the case of `O=C1CC[C@@H]2[C@H]3CCC(=O)c4c3c(c3cccc(O)c3c4O)O[C@@]23C(=O)c2cccc(O)c2C(O)=C13`, the GI50 is more than 100 µM in assay [1]; more than 100 µM in assay [9]; more than 100 µM in assay [3]; more than 100 µM in [4]; 61.4 µM in [6]; more than 100 µM in [7]. Further, the GI50 in [8] was more than 100 µM. The TGI in assay [1], in assay [9], in assay [3], in [4], in assay [6] and in [7] was more than 100 µM each time. The compound further came in with a TGI in assay [8] of more than 100 µM.

Turning to `O=C1c2ccccc2-n2c1nc1ccc([N+](=O)[O-])cc1c2=O`, the TGI in assay [1], in assay [2], in [3], in assay [4], in [6] and in assay [7] was more than 100 µM each time. The TGI in assay [8] is more than 100 µM.

For `Cc1ccc(C)c(NC(=O)C(=O)C(C2C(C)CC(=O)C2CC(=O)O)[N+](=O)[O-])c1` (stereo not drawn), the TGI in assay [1], in assay [2], in assay [9], in assay [3], in assay [4] and in assay [5] was more than 100 µM each time. The TGI in assay [6], in assay [7] and in assay [8] was more than 100 µM in each case.

For `O=C1C=C(c2ccccc2)NC1(c1ccccc1)c1cc(-c2ccccc2)[nH]c1-c1ccccc1` (stereo not drawn), the TGI in [1], in [2], in assay [9], in assay [3], in assay [4] and in [5] was more than 100 µM throughout. In addition, the TGI in assay [6], in [7] and in assay [8] was more than 100 µM in each case.

Turning to `CN(COC(=O)C(C)(C)C)c1nc(N(C)COC(=O)C(C)(C)C)nc(N(C)COC(=O)C(C)(C)C)n1`, the TGI in [1], in assay [2], in assay [9], in assay [3], in assay [4] and in assay [5] was more than 100 µM each time. The TGI in assay [6] is more than 100 µM; in assay [7] it was more than 100 µM; in assay [8], 82.2 µM.

On to `CC(=O)CC(=O)Nc1ccc(OS(N)(=O)=O)cc1`, for which the TGI in assay [1], in assay [2], in assay [9], in assay [3], in [4] and in assay [5] was more than 100 µM throughout. In addition, the TGI in assay [6], in assay [7] and in assay [8] was more than 100 µM throughout.

For the origin of these results see PubChem BioAssay (NCI).
